“And” between values parts separate entries of the source, which are not always exact repeats. Identical values can stand only once.
Test system: 922993-354-T-J3-PDC complex spheroid viability
Test: Anticancer human tumor 922993-354-T-J3-PDC patient-derived endometrial carcinoma cell line growth inhibition [POLQ]
Conditions: for viability, T/C: stronger effect = lower value
Description: Multicellular complex tumor spheroid response to Polymerase (POL) inhibitors (novobiocin, ART-558, RP6685) in combination with a variety of drugs and investigational agents in selected tumor cell lines
The POL inhibitors (novobiocin, ART-558, and RP6685) were evaluated both individually and in combination with standard of care and investigational anticancer small molecules within a complex spheroid model of solid tumors. . Complex spheroids include a stromal component modeled by human endothelial cells (HUVEC) and fibroblasts modeled by human mesenchymal stem cells (MSCs). The concentration ranges selected for each drug and investigational agent were based upon clinically achievable concentrations if the clinical Cmax of the agent was known.
Compounds. The drugs and investigational agents: novobiocin (NSC847541), ART-558 (NSC835418), RP-6685 (NSC848927), peposertib (NSC802822), ceralasertib (NSC780249), elimusertib (NSC800525), camonsertib (NSC841442), AZD-1390 (NSC803789), olaparib (NSC753686), talazoparib (NSC767125), rucaparib (NSC756644), sotorasib (NSC818433), MRTX-1133 (NSC836407), SN-38 (NSC673596), topotecan (NSC609699), epotoside (NSC141540), doxorubicin (NSC123127), gemcitabine (NSC613327), 5-fluorouracil (NSC19893), paclitaxel (NSC125973), vemurafenib (NSC761431), MSA-2 (NSC828583), SN-011 (NSC837082), adavosertib (NSC754352), prexasertib (NSC758257), carboplatin (NSC241240) and oxaliplatin (NSC266046), were obtained from the National Cancer Institute (NCI) Developmental Therapeutics Program Chemical Repository (21). The FDA-approved anticancer drug set is available from the Developmental Therapeutics Program at https://dtp.cancer.gov/organization/dscb/obtaining/. […] The stock solutions were prepared in dimethyl sulfoxide (DMSO, Sigma-Aldrich, St. Louis, MO, cat. D2650), except for the platinum compounds which were prepared in saline (Quality Biological, Gaithersburg, MD, cat. 114-055-101), at 800-fold the tested concentration and stored at -70 degrees C prior to their use. All drugs and investigational agents were tested over a range starting from a high concentration at or near the clinical Cmax and decreasing in half-log increments. If the clinical Cmax for an agent had not been determined, the highest concentration tested was 10 microM, except for SN-38, which was tested at a high concentration of 1 microM.
Cell Culture. All cells were maintained in an incubator at 37 degrees C and 5% CO2 with 95% humidity. The PDC lines were cultured according to standard operating procedures established by the NCI PDMR (https://pdmr.cancer.gov). Table 3 of the manuscript, lists the cell lines along with the number of the three cell types plated to form the mct-spheroids and media for tumor cell growth. After thawing, all PDC lines, except 997537-175-T-J1-PDC and 415267-285-R-J2-PDC, were cultured in Matrigel-coated flasks prepared with a working solution of 1X Ham's F-12 nutrient mix, without supplementation (Thermo Fisher Scientific, cat. 11765054), 100 U/mL penicillin-streptomycin (Thermo Fisher Scientific, cat. 15140122), and 2.5% Matrigel (Corning Inc., Corning, NY, cat. 354248) for the first three passages. The two PDC lines 997537-175-T-J1-PDC and 415267-285-R-J2-PDC were cultured on uncoated flasks. The 857933-349-R-J2-PDC line was cultured in 6C/Colon 1B media containing advanced DMEM/F-12 (Thermo Fisher Scientific, cat. 12634028), 10 mM HEPES (Thermo Fisher Scientific, cat. 15630080), 1X GlutaMAX supplement (Thermo Fisher Scientific, cat. 35050061), 0.1 mg/mL primocin (InvivoGen, San Diego, CA, cat. ant-pm-2), 10% defined fetal bovine serum, heat inactivated (HyClone Laboratories Inc., Logan, UT, cat. SH30070.03HI), 50% L-WRN conditioned media (ATCC, cat. CRL-3276), 1.25 mM N-Acetyl-L-cysteine (Sigma-Aldrich, cat. A9165), 10 mM nicotinamide (Sigma-Aldrich, cat. N0636), 1X B-27 supplement (Thermo Fisher Scientific, cat. 17504044), 1X N-2 supplement (Thermo Fisher Scientific, cat. […]

[1] = curve of first compound, second compound 0.0316 µM
[2] = curve of first compound, second compound 0.1 µM
[3] = curve of first compound, second compound 0.316 µM
[4] = curve of first compound, second compound 1 µM
[5] = curve of first compound, second compound 3.16 µM
[6] = curve of first compound, second compound 10 µM
[7] = second compound 0.0316 µM, first compound 0.0316 µM
[8] = second compound 0.0316 µM, first compound 0.1 µM
[9] = second compound 0.0316 µM, first compound 0.316 µM
[10] = second compound 0.0316 µM, first compound 1 µM
[11] = second compound 0.1 µM, first compound 0.0316 µM
[12] = second compound 0.1 µM, first compound 0.1 µM
[13] = second compound 0.1 µM, first compound 0.316 µM
[14] = second compound 0.1 µM, first compound 1 µM
[15] = second compound 0.316 µM, first compound 0.0316 µM
[16] = second compound 0.316 µM, first compound 0.1 µM
[17] = second compound 0.316 µM, first compound 0.316 µM
[18] = second compound 0.316 µM, first compound 1 µM
[19] = second compound 1 µM, first compound 0.0316 µM
[20] = second compound 1 µM, first compound 0.1 µM
[21] = second compound 1 µM, first compound 0.316 µM
[22] = second compound 1 µM, first compound 1 µM
[23] = second compound 3.16 µM, first compound 0.0316 µM
[24] = second compound 3.16 µM, first compound 0.1 µM
[25] = second compound 3.16 µM, first compound 0.316 µM
[26] = second compound 3.16 µM, first compound 1 µM
[27] = second compound 10 µM, first compound 0.0316 µM
[28] = second compound 10 µM, first compound 0.1 µM
[29] = second compound 10 µM, first compound 0.316 µM
[30] = second compound 10 µM, first compound 1 µM
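Note: spheroids exposed to the agents for one week.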
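Throughout, for viability, T/C: 100% = DMSO vehicle control wells.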

C#Cc1c(F)ccc2cc(O)cc(-c3ncc4c(N5CC6CCC(C5)N6)nc(OCC56CCCN5CC(F)C6)nc4c3F)c12 (stereo not drawn)
viability, T/C (compound 0.0316 µM): 108% and 107% and 101% | viability, T/C (compound 0.1 µM): 95.9% and 99.1% and 99.3% | viability, T/C (compound 0.316 µM): 97.7% and 108% and 93.2% | viability, T/C (compound 1 µM): 110% and 99.2% and 95% | viability, T/C (compound 3.16 µM): 96% and 102% and 92.8% | viability, T/C (compound 10 µM): 98.1% and 99.6% and 90.1% | IC50 (curve of compound): > 10 µM

O=C(c1cc(Cc2n[nH]c(=O)c3ccccc23)ccc1F)N1CCN(C(=O)C2CC2)CC1 + Nc1ccc(C#CCN(C(=O)Cc2ncc(C(F)(F)F)cc2C(F)(F)F)c2ccc(F)cc2)nn1
IC50 [1]: > 10 µM | IC50 [2]: > 10 µM | IC50 [3]: > 10 µM | IC50 [4]: > 10 µM | IC50 [5]: > 10 µM | IC50 [6]: > 10 µM | viability, T/C [7]: 107% | viability, T/C [8]: 97.6% | viability, T/C [9]: 99.4% | viability, T/C [10]: 101% | viability, T/C (second compound 0.0316 µM, first compound 3.16 µM): 102% | viability, T/C (second compound 0.0316 µM, first compound 10 µM): 96.7% | viability, T/C [11]: 104% | viability, T/C [12]: 103% | viability, T/C [13]: 100% | viability, T/C [14]: 98% | viability, T/C (second compound 0.1 µM, first compound 3.16 µM): 101% | viability, T/C (second compound 0.1 µM, first compound 10 µM): 95% | viability, T/C [15]: 104% | viability, T/C [16]: 99.5% | viability, T/C [17]: 101% | viability, T/C [18]: 101% | viability, T/C (second compound 0.316 µM, first compound 3.16 µM): 102% | viability, T/C (second compound 0.316 µM, first compound 10 µM): 97.1% | viability, T/C [19]: 99% | viability, T/C [20]: 105% | viability, T/C [21]: 101% | viability, T/C [22]: 96.2% | viability, T/C (second compound 1 µM, first compound 3.16 µM): 100% | viability, T/C (second compound 1 µM, first compound 10 µM): 100% | viability, T/C [23]: 101% | viability, T/C [24]: 100% | viability, T/C [25]: 99.2% | viability, T/C [26]: 98.6% | viability, T/C (second compound 3.16 µM, first compound 3.16 µM): 97.5% | viability, T/C (second compound 3.16 µM, first compound 10 µM): 101% | viability, T/C [27]: 95.6% | viability, T/C [28]: 96.9% | viability, T/C [29]: 88.8% | viability, T/C [30]: 91.9% | viability, T/C (second compound 10 µM, first compound 3.16 µM): 94.2% | viability, T/C (second compound 10 µM, first compound 10 µM): 90%

CC1COCCN1c1cc(C2(S(C)(=N)=O)CC2)nc(-c2ccnc3[nH]ccc23)n1 (stereo not drawn)
viability, T/C (compound 0.0316 µM): 98.8% and 101% and 94% | viability, T/C (compound 0.1 µM): 94.9% and 100% and 90.1% | viability, T/C (compound 0.316 µM): 91.1% and 101% (2×) | viability, T/C (compound 1 µM): 97% and 102% and 99.8% | viability, T/C (compound 3.16 µM): 93.2% and 104% and 78.1% | viability, T/C (compound 10 µM): 46.8% and 92.4% and 45% | IC50 (curve of compound): 9.23 µM and > 10 µM and 8.4 µM

C=CCn1c(=O)c2cnc(Nc3ccc(N4CCN(C)CC4)cc3)nc2n1-c1cccc(C(C)(C)O)n1 + Nc1ccc(C#CCN(C(=O)Cc2ncc(C(F)(F)F)cc2C(F)(F)F)c2ccc(F)cc2)nn1
IC50 [1]: > 1 µM | IC50 [2]: > 1 µM | IC50 [3]: > 1 µM | IC50 [4]: > 1 µM | IC50 [5]: > 1 µM | IC50 [6]: > 1 µM | viability, T/C (second compound 0.0316 µM, first compound 0.00316 µM): 105% | viability, T/C (second compound 0.0316 µM, first compound 0.01 µM): 102% | viability, T/C [7]: 101% | viability, T/C [8]: 100% | viability, T/C [9]: 106% | viability, T/C [10]: 98.5% | viability, T/C (second compound 0.1 µM, first compound 0.00316 µM): 107% | viability, T/C (second compound 0.1 µM, first compound 0.01 µM): 98.5% | viability, T/C [11]: 103% | viability, T/C [12]: 99.6% | viability, T/C [13]: 104% | viability, T/C [14]: 101% | viability, T/C (second compound 0.316 µM, first compound 0.00316 µM): 107% | viability, T/C (second compound 0.316 µM, first compound 0.01 µM): 101% | viability, T/C [15]: 97.5% | viability, T/C [16]: 101% | viability, T/C [17]: 99.6% | viability, T/C [18]: 100% | viability, T/C (second compound 1 µM, first compound 0.00316 µM): 103% | viability, T/C (second compound 1 µM, first compound 0.01 µM): 99% | viability, T/C [19]: 101% | viability, T/C [20]: 97.6% | viability, T/C [21]: 100% | viability, T/C [22]: 100% | viability, T/C (second compound 3.16 µM, first compound 0.00316 µM): 100% | viability, T/C (second compound 3.16 µM, first compound 0.01 µM): 98.8% | viability, T/C [23]: 101% | viability, T/C [24]: 99.4% | viability, T/C [25]: 101% | viability, T/C [26]: 94.8% | viability, T/C (second compound 10 µM, first compound 0.00316 µM): 96.3% | viability, T/C (second compound 10 µM, first compound 0.01 µM): 92.5% | viability, T/C [27]: 94.5% | viability, T/C [28]: 95.8% | viability, T/C [29]: 97% | viability, T/C [30]: 55.2%

— PubChem BioAssay AID1963830 (Molecular Pharmacology Branch, DTP, NCI, 2024)
